Data published in paper PMC7717570, “Deciphering the enzymatic target of a new family of antischistosomal agents bearing a quinazoline scaffold using complementary computational tools” (Journal of Enzyme Inhibition and Medicinal Chemistry, 2020).
“And” between values parts separate entries of the source, which are not always exact repeats. Identical values can stand only once.

Experiments:
[1] = test system: Schistosoma mansoni mature worms; experiment: In vitro S. mansoni worm killing; conditions: Schistosoma mansoni, 120 h, day 5, initial test (Table 2), read-out: Worm killing (% of total)
Procedure: The percentage reduction of worm or egg burden in each treated group was calculated. […] Results are expressed as mean ± SEM. A two-tailed, unpaired Student’s t-test was used to detect the significance of difference between the means of different groups. […] Stock solutions of 5 mM PZQ and the quinazoline derivatives 2–13 were prepared in DMSO. Concentrations of 100 µM, 50 µM, 25 µM, 10 µM and 5 µM were freshly prepared on the day of experiment in RPMI-1640 medium. All compounds were initially tested at 100 and 50 µM; those showing worm killing were further tested at 25, 10 and 5 µM. Worms were obtained from SBSC of TBRI. Six to eight worms were placed in 12-well tissue culture plates and fresh RPMI-1640 medium (supplemented with glutamine, 20% newborn calf serum and streptomycin, penicillin, and gentamicin), containing the indicated concentration of the test compound was added[20]^,[21]. Worms were incubated overnight in a CO2 incubator at 37 °C. On the 2nd day, worms were examined by microscopy, washed three times with normal saline, fresh medium was added and the incubation was continued. On the 3rd day, worm motility was observed and on the 4th day, medium was changed again. On day 5 (end of the observation period), worms were microscopically examined for their motility and appearance. Each concentration was tested in duplicate, and the final recording of percent worm mortality was determined as the number of dead worms [contracted and opaque] divided by the total number of worms × 100. Negative controls used medium without additions or medium with 2% DMSO; positive control media containing identical concentrations of PZQ were tested in parallel.

[2] = test system: Schistosoma mansoni worm couples; experiment: S. mansoni ovipositing capacity and coupling; conditions: initial test (Table 2); for inhibition at 50 µM / inhibition at 100 µM: Schistosoma mansoni, 120 h, read-out: Reduction in number of eggs (%)
Procedure: Stock solutions of 5 mM PZQ and the quinazoline derivatives 2–13 were prepared in DMSO. Concentrations of 100 µM, 50 µM, 25 µM, 10 µM and 5 µM were freshly prepared on the day of experiment in RPMI-1640 medium. All compounds were initially tested at 100 and 50 µM; those showing worm killing were further tested at 25, 10 and 5 µM. 12-well tissue culture plates were used, each well containing 6–8 worms with at least one worm couple. Worms were incubated overnight in a CO2 incubator at 37 °C. Each concentration was tested in duplicate wells. On day 4, eggs were counted and discarded and the medium was changed. On day 5 (end of observation period) newly deposited eggs were counted. The final egg number is the total count of days 4 and 5 for each concentration tested and the final recording of the percentage of egg reduction was determined as [the total number of eggs on days 4 and 5 of control – the total number of eggs on days 4 and 5 of treated]/the total number of eggs on days 4 and 5 of control × 100.

[3] = Microsomal stability, mouse liver microsomes (S9), Phase-I (CYP450-NADPH); format: in vitro ADME; conditions: CYP450-NADPH, 5 µM
Procedure: (§1) Mouse or human liver microsomes (S9), reduced nicotinamide adenine dinucleotide phosphate (NADPH) generating system solutions and uridine glucuronosyltransferase (UGT) reaction mix (BD Biosciences) were kept at −80 °C. The test compounds and reference compound diclofenac were formulated in DMSO at […]. The assay was carried out based on the BD Biosciences Guidelines for Use (TF000017 Rev1.0) with minor adaptations. The metabolic stability of the compounds was studied through the CYP450 superfamily (Phase-I metabolism) by fortification with NADPH and through UGT enzymes (Phase-II metabolism) by fortification with uridine diphosphate glucuronic acid (UDPGA). For CYP450 and other NADPH dependent enzymes, the compounds were incubated at 5 µM together with 0.5 mg/mL S9 in potassium phosphate buffer in a reaction started by the addition of 1 mM NADP. At defined time points, 20 µL was withdrawn from the reaction mixture and 80 µL cold acetonitrile (ACN) was added to inactivate the enzymes and precipitate the protein. The mixture was vortexed for 30 s and centrifuged at 4 °C for 5 min to collect the supernatant. For UGT enzymes, the compounds were incubated at 5 µM together with 0.5 mg/mL S9 in a reaction started by the addition of 2 mM UDPGA cofactor. The loss of parent compound was determined using liquid chromatography (UPLC) (Waters Aquity^TM) coupled with tandem quadrupole mass spectrometry (MS^2) (Waters Xevo^TM), equipped with an electrospray ionisation (ESI) interface and operated in multiple reaction monitoring (MRM) mode.

[4] = Microsomal stability, human liver microsomes (S9), Phase-II (UGT enzymes); format: in vitro ADME; conditions: UGT enzymes, 5 µM
Procedure: as §1

[5] = Microsomal stability, human liver microsomes (S9), Phase-I (CYP450-NADPH); format: in vitro ADME; conditions: CYP450-NADPH, 5 µM
Procedure: as §1

[6] = Microsomal stability, mouse liver microsomes (S9), Phase-II (UGT enzymes); format: in vitro ADME; conditions: UGT enzymes, 5 µM
Procedure: as §1

SMILES | killing at 50 µM [1] [%] | killing at 100 µM [1] [%] | Uncoupling ([2]; 50 µM) | Uncoupling ([2]; 100 µM) | inhibition at 50 µM ([2]; 50 µM) [%] | inhibition at 100 µM ([2]; 100 µM) [%] | other results
COc1ccc(Cn2c(=O)c3ccccc3n(Cc3ccc(C(F)(F)F)cc3)c2=O)cc1 [compound 3, 1-(4-(Trifluoromethyl)benzyl)3-(4-methoxybenzyl)quinazolin-2,4(1H,3H)-dione] | 0 | 75 | Yes | Yes | 100 | 100 | –
COc1ccc(Cn2c(=O)c3ccc(Br)cc3n(Cc3ccc(C(F)(F)F)cc3)c2=O)cc1 [compound 7, 7-Bromo-1-(4-(trifluoromethyl)benzyl)-3-(4-methoxybenzyl)quinazolin-2,4(1H,3H)-dione] | 0 | 0 | No | No | 35 | 50 | –
O=c1c2ccccc2n(Cc2ccc(C(F)(F)F)cc2)c(=O)n1Cc1ccc(F)cc1 [compound 2, 3-(4-Fluorobenzyl)-1-(4-(trifluoromethyl)benzyl)quinazolin-2,4(1H,3H)-dione] | 0 | 100 | No | Yes | 100 | 100 | –
COc1ccc(Cn2c(=O)c3cc(C)cc(Br)c3n(Cc3ccc(C(F)(F)F)cc3)c2=O)cc1 [compound 13, 8-Bromo-1-(4-(trifluoromethyl)benzyl)-3-(4-methoxybenzyl)-6-methylquinazolin-2,4(1H,3H)-dione] | 0 | 33 | Yes | Yes | 100 | 100 | –
O=c1c2cc(Br)ccc2n(Cc2ccc(C(F)(F)F)cc2)c(=O)n1Cc1ccc(F)cc1 [compound 4, 6-Bromo-3-(4-fluorobenzyl)-1-(4-(trifluoromethyl)benzyl)quinazolin-2,4(1H,3H)-dione] | 13 | 100 | Yes | Yes | 100 | 100 | –
COc1ccc(Cn2c(=O)c3cc(Br)ccc3n(Cc3ccc(C(F)(F)F)cc3)c2=O)cc1 [compound 5, 6-Bromo-1-(4-(trifluoromethyl)benzyl)-3-(4-methoxybenzyl)quinazolin-2,4(1H,3H)-dione] | 0 | 100 | No | Yes | 31 | 100 | –
O=C(O)Cc1ccccc1Nc1c(Cl)cccc1Cl [Diclofenac, diclofenac, reference compound] | – | – | – | – | – | – | % Parent compound remaining upon incubation ([3]; 0 min): 100%; % Parent compound remaining upon incubation ([3]; 15 min): 87% and 61%; % Parent compound remaining upon incubation ([3]; 60 min): 48% and 27%; % Parent compound remaining upon incubation ([4]; 0 min): 100%; % Parent compound remaining upon incubation ([4]; 15 min): 11%; % Parent compound remaining upon incubation ([4]; 30 min): 9%; % Parent compound remaining upon incubation ([4]; 60 min): 9%; % Parent compound remaining upon incubation ([5]; 0 min): 100%; % Parent compound remaining upon incubation ([5]; 15 min): 27%; % Parent compound remaining upon incubation ([5]; 30 min): 5%; % Parent compound remaining upon incubation ([5]; 60 min): 1%; % Parent compound remaining upon incubation ([6]; 0 min): 100%; % Parent compound remaining upon incubation ([6]; 15 min): 41% and 34%; % Parent compound remaining upon incubation ([6]; 30 min): 44% and 32%; % Parent compound remaining upon incubation ([6]; 60 min): 34% and 30%
COc1ccc(Cn2c(=O)c3cc(OC)c(OC)cc3n(Cc3ccc(C(F)(F)F)cc3)c2=O)cc1 [compound 11, 1-(4-(Trifluoromethyl)benzyl)-6,7-dimethoxy-3-(4-methoxybenzyl)quinazolin-2,4(1H,3H)-dione] | 0 | 86 | Yes | Yes | 100 | 100 | –
O=c1c2ccc(Br)cc2n(Cc2ccc(C(F)(F)F)cc2)c(=O)n1Cc1ccc(F)cc1 [compound 6, 7-Bromo-3-(4-fluorobenzyl)-1-(4-(trifluoromethyl)benzyl)quinazolin-2,4(1H,3H)-dione] | 0 | 88 | Yes | Yes | 100 | 100 | –
Cc1cc(Br)c2c(c1)c(=O)n(Cc1ccc(F)cc1)c(=O)n2Cc1ccc(C(F)(F)F)cc1 [compound 12, 8-Bromo-3-(4-fluorobenzyl)-1-(4-(trifluoromethyl)benzyl)-6-methylquinazolin-2,4(1H,3H)-dione] | 0 | 0 | No | Yes | 50 | 100 | –
O=c1c2cc(Cl)ccc2n(Cc2ccc(C(F)(F)F)cc2)c(=O)n1Cc1ccc(F)cc1 [compound 8, 6-Chloro-3-(4-fluorobenzyl)-1-(4-(trifluoromethyl)benzyl)quinazolin-2,4(1H,3H)-dione] | 0 | 100 | Yes | Yes | 100 | 100 | –
